Here are results for one compound from US10766895B2 (Zhejiang Huahai Pharmaceutical Co., Ltd., priority 2015, dated 2020).

For series [1] the following is noted: all of organic solvents; cited from earlier work.
Series [2] is described as follows: Comparative Example 1: heating palbociclib free base in n-butanol and anisole (method of WO2014128588A1). Format: physicochemical. Conditions: n-butanol (16 ml/g) and anisole (24 ml/g), heated to 95-100° C. The source says: The seed crystal of crystal form A was required to be added into the reaction system to obtain a crystal form A of palbociclib free base.

Consider `CC(=O)c1c(C)c2cnc(Nc3ccc(N4CCNCC4)cn3)nc2n(C2CCCC2)c1=O` [palbociclib free base, 6-acetyl-8-cyclopentyl-5-methyl-2-[[5-(piperazine-1-yl)pyridine-2-yl]amino]-8H-pyrido[2,3-D]pyrimidine-7-ketone], for which the “Solubility in organic solvents” value in series [1] was “very poor solubility”. The Solubility on heating entry in series [2] is given as “remained insoluble”.
